Results: EP4745137A1 (Gluetacs Therapeutics (Shanghai) Co., Ltd., priority 2023, dated 2025)

Tests used:
Format in all cases: cell-based
Settings in all cases: 24 hours of compound treatment
[1] = biological target: T1, IKZF2 (Homo sapiens, UniProt Q96SW2+Q9UKS7); assay: Western-blot assay of substrate protein degradation in hPBMCs, IKZF2
T1 construct: endogenous in cells; host or cells: hPBMCs (Milecell Biotechnologies)

[2] = biological target: T2, CK1α (Homo sapiens, UniProt P48729+Q96SW2); assay: Western-blot assay of substrate protein degradation in hPBMCs, CK1α
T2 construct: endogenous in cells; host or cells: hPBMCs (Milecell Biotechnologies)

[3] = biological target: T3, WEE1 (Homo sapiens, UniProt P30291+Q96SW2); assay: Western-blot assay of substrate protein degradation in hPBMCs, WEE1
T3 construct: endogenous in cells; host or cells: hPBMCs (Milecell Biotechnologies)

[4] = biological target: T4, GSPT1 (Homo sapiens, UniProt P15170+Q96SW2); assay: Western-blot assay of substrate protein degradation in hPBMCs, GSPT1
T4 construct: endogenous in cells; host or cells: hPBMCs (Milecell Biotechnologies)

[5] = biological target: T5, IKZF3 (Homo sapiens, UniProt Q96SW2+Q9UKT9); assay: Western-blot assay of substrate protein degradation in hPBMCs, IKZF3
T5 construct: endogenous in cells; host or cells: hPBMCs (Milecell Biotechnologies)

[6] = biological target: T6, IKZF1 (Homo sapiens, UniProt Q13422+Q96SW2); assay: Western-blot assay of substrate protein degradation in hPBMCs, IKZF1
T6 construct: endogenous in cells; host or cells: hPBMCs (Milecell Biotechnologies)

[7] = 50 nM and 500 nM tested (concentration behind the class not stated)
[8] = compounds tested at 50 nM and 500 nM (concentration of the table not stated)

T2 sequence (P48729 whole entry): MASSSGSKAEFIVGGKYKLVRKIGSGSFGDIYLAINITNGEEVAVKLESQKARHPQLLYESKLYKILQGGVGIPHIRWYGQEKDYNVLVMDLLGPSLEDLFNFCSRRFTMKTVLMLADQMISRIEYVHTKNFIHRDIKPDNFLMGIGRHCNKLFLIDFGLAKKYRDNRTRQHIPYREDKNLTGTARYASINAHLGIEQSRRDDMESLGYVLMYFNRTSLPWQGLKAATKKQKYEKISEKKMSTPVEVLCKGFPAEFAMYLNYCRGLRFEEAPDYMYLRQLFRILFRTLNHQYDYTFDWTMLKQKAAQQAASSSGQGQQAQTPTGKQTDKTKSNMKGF
T2 sequence (Q96SW2 whole entry): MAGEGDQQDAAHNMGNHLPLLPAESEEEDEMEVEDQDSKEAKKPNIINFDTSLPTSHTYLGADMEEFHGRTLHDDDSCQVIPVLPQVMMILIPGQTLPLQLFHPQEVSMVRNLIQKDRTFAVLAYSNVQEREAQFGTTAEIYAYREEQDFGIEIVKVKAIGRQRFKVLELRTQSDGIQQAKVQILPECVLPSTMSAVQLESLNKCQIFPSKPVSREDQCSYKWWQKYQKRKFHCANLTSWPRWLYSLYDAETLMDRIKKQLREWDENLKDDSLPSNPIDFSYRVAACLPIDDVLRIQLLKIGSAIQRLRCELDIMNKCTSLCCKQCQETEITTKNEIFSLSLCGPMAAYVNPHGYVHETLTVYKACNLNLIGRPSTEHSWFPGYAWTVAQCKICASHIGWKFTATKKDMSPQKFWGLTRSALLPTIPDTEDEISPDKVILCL
T2 sequence (Q16531 whole entry partner): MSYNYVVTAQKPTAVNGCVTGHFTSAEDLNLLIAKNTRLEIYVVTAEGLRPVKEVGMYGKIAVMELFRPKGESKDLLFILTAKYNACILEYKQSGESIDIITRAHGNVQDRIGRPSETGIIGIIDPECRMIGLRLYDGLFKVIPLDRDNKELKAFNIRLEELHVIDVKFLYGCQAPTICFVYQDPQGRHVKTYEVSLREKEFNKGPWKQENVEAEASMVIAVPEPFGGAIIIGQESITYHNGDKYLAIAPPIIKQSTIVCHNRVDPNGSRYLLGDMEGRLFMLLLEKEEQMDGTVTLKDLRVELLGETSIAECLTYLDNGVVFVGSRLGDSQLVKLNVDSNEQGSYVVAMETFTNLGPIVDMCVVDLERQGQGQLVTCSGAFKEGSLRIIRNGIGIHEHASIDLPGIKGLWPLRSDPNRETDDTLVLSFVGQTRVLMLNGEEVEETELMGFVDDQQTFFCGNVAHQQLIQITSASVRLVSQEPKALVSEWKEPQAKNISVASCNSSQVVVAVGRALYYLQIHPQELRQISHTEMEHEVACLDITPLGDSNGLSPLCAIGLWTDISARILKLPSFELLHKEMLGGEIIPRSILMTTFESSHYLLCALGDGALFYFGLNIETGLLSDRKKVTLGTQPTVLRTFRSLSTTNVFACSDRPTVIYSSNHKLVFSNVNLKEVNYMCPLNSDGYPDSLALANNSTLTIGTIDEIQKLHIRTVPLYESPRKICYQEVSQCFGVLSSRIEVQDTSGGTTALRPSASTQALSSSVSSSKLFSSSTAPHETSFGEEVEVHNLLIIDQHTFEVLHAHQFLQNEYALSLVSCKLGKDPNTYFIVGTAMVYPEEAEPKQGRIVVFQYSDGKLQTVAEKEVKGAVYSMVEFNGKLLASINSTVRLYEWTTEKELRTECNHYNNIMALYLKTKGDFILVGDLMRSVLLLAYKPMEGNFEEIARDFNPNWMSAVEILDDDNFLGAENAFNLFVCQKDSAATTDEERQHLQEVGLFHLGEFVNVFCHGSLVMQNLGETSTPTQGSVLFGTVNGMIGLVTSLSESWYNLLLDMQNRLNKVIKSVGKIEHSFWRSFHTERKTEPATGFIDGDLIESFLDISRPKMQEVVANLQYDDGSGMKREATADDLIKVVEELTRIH
T5 sequence (Q9UKT9 whole entry): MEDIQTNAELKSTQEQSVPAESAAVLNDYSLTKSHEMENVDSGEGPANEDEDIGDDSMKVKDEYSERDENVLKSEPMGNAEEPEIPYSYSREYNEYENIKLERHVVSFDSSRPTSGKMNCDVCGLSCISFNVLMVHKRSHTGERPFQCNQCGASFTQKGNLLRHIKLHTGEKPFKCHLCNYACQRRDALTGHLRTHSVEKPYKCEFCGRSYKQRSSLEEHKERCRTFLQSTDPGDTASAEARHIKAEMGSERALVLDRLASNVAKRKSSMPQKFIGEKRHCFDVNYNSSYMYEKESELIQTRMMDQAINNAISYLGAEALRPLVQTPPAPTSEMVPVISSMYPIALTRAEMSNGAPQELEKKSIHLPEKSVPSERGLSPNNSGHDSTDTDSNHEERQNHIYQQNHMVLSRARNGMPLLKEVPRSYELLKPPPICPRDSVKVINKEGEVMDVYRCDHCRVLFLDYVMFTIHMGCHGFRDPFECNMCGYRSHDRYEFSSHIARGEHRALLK
T5 sequence (Q96SW2 whole entry): as the sequence (Q96SW2 whole entry) above
T5 sequence (Q16531 whole entry partner): as the sequence (Q16531 whole entry partner) above
T6 sequence (Q13422 whole entry): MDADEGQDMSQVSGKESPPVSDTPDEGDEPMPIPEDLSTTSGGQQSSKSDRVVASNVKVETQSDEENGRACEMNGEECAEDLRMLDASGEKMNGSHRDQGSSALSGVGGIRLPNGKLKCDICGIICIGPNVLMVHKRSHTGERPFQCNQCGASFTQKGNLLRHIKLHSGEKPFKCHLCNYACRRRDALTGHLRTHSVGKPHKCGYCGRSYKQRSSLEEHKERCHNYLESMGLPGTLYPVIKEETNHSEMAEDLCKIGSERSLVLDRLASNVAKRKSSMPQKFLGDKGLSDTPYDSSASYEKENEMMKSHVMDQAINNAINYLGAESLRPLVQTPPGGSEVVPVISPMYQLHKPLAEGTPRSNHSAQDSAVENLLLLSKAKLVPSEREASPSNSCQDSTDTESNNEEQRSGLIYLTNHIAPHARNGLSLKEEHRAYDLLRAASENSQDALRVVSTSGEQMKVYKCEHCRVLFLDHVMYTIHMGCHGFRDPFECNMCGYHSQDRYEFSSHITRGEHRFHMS
T6 sequence (Q96SW2 whole entry): as the sequence (Q96SW2 whole entry) above
T6 sequence (Q16531 whole entry partner): as the sequence (Q16531 whole entry partner) above
T1 sequence (Q9UKS7 whole entry): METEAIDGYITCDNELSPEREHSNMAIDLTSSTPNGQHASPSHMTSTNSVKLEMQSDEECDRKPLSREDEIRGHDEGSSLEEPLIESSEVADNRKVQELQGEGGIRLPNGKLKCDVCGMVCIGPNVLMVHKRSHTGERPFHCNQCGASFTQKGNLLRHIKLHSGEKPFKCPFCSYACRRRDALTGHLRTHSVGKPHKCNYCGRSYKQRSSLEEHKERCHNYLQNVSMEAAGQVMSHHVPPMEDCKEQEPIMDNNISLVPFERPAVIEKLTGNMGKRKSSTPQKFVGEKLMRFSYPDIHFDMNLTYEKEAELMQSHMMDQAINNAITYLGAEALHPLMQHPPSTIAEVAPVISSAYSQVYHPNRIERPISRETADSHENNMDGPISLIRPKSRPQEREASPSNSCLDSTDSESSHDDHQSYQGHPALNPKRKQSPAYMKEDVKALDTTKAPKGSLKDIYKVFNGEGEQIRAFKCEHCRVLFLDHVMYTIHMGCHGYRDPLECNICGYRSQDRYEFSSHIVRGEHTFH
T1 sequence (Q96SW2 whole entry): as the sequence (Q96SW2 whole entry) above
T1 sequence (Q16531 whole entry partner): as the sequence (Q16531 whole entry partner) above
T3 sequence (P30291 whole entry): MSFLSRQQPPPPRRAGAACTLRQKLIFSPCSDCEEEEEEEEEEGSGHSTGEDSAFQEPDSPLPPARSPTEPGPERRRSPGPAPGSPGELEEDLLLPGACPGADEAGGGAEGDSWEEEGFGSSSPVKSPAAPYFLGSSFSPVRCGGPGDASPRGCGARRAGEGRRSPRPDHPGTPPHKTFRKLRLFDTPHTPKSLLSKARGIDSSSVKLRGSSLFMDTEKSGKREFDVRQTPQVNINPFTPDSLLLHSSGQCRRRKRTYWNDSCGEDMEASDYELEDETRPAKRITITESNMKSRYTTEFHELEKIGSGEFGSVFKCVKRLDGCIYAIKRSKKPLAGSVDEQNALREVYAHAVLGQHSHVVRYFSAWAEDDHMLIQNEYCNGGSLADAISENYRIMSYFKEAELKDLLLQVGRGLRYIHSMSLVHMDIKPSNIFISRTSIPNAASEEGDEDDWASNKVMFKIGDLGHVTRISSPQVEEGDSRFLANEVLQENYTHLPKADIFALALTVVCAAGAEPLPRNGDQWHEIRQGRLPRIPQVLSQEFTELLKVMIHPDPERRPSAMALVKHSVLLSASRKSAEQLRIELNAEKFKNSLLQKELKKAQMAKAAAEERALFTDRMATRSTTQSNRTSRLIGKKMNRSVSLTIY
T3 sequence (Q96SW2 whole entry): as the sequence (Q96SW2 whole entry) above
T3 sequence (Q16531 whole entry partner): as the sequence (Q16531 whole entry partner) above

SMILES: O=C1CCC(N2C(=O)c3ccc(CN4CCN(c5ccc(Br)cc5)CC4)cc3C2=O)C(=O)N1 (stereo not drawn) [GT-06295, 5-((4-(4-bromophenyl)piperazin-1-yl)methyl)-2-(2,6-dioxopiperidin-3-yl)isoindoline-1,3-dione]
- IKZF2 substrate protein remaining % [1, 7]: B (80%< substrate protein remaining %≤ 100%)
- CK1a substrate protein remaining % [2, 7]: B (80%< substrate protein remaining %≤ 100%)
- Weel substrate protein remaining % [3, 7]: B (80%< substrate protein remaining %≤ 100%)
- GSPT1 substrate protein remaining % [4, 7]: A (0% ≤ substrate protein remaining % ≤ 80%)
- IKZF3 substrate protein remaining % [5, 7]: B (80%< substrate protein remaining %≤ 100%)
- IKZF 1 substrate protein remaining % [6, 7]: B (80%< substrate protein remaining %≤ 100%)

SMILES: O=C1CCC(N2C(=O)c3ccc(CN4CCC(N5CCCc6cc(F)ccc65)CC4)cc3C2=O)C(=O)N1 (stereo not drawn) [GT-06234, 2-(2,6-dioxopiperidin-3-yl)-5-((4-(6-fluoro-3,4-dihydroquinolin-1(2H)-yl)piperidin-1-yl)methyl)isoindoline-1,3-dione]
- IKZF2 substrate protein remaining % [1, 8]: B (80%< substrate protein remaining %≤ 100%)
- CK1a substrate protein remaining % [2, 8]: B (80%< substrate protein remaining %≤ 100%)
- Weel substrate protein remaining % [3, 8]: B (80%< substrate protein remaining %≤ 100%)
- GSPT1 substrate protein remaining % [4, 8]: A (0% ≤ substrate protein remaining % ≤ 80%)
- IKZF3 substrate protein remaining % [5, 8]: B (80%< substrate protein remaining %≤ 100%)
- IKZF 1 substrate protein remaining % [6, 8]: B (80%< substrate protein remaining %≤ 100%)

SMILES: O=C1CCC(N2C(=O)c3ccc(CN4CC=C(c5cccc6c(F)cccc56)CC4)cc3C2=O)C(=O)N1 (stereo not drawn) [GT-06264, 2-(2,6-dioxopiperidin-3-yl)-5-((4-(5-fluoronaphthalen-1-yl)-3,6-dihydropyridin-1(2H)-yl)methyl)isoindoline-1,3-dione]
- IKZF2 substrate protein remaining % [1, 8]: A (0% ≤ substrate protein remaining % ≤ 80%)
- CK1a substrate protein remaining % [2, 8]: A (0% ≤ substrate protein remaining % ≤ 80%)
- Weel substrate protein remaining % [3, 8]: A (0% ≤ substrate protein remaining % ≤ 80%)
- GSPT1 substrate protein remaining % [4, 8]: A (0% ≤ substrate protein remaining % ≤ 80%)
- IKZF3 substrate protein remaining % [5, 8]: A (0% ≤ substrate protein remaining % ≤ 80%)
- IKZF 1 substrate protein remaining % [6, 8]: A (0% ≤ substrate protein remaining % ≤ 80%)

SMILES: O=C1CCC(N2C(=O)c3ccc(CN4CC(C5CCOc6cc(F)ccc65)C4)cc3C2=O)C(=O)N1 (stereo not drawn) [GT-06269, 2-(2,6-dioxopiperidin-3-yl)-5-((3-(7-fluorochroman-4-yl)azetidin-1-yl)methyl)isoindoline-1,3-dione]
- IKZF2 substrate protein remaining % [1, 8]: A (0% ≤ substrate protein remaining % ≤ 80%)
- CK1a substrate protein remaining % [2, 8]: B (80%< substrate protein remaining %≤ 100%)
- Weel substrate protein remaining % [3, 8]: B (80%< substrate protein remaining %≤ 100%)
- GSPT1 substrate protein remaining % [4, 8]: A (0% ≤ substrate protein remaining % ≤ 80%)
- IKZF3 substrate protein remaining % [5, 8]: A (0% ≤ substrate protein remaining % ≤ 80%)
- IKZF 1 substrate protein remaining % [6, 8]: B (80%< substrate protein remaining %≤ 100%)

SMILES: O=C1CCC(N2C(=O)c3ccc(CN4CCN(c5cccc(F)n5)CC4)cc3C2=O)C(=O)N1 (stereo not drawn) [GT-06527, 2-(2,6-dioxopiperidin-3-yl)-5-((4-(6-fluoropyridin-2-yl)piperazin-1-yl)methyl)isoindoline-1,3-dione]
- IKZF2 substrate protein remaining % [1, 7]: A (0% ≤ substrate protein remaining % ≤ 80%)
- CK1a substrate protein remaining % [2, 7]: B (80%< substrate protein remaining %≤ 100%)
- Weel substrate protein remaining % [3, 7]: A (0% ≤ substrate protein remaining % ≤ 80%)
- GSPT1 substrate protein remaining % [4, 7]: A (0% ≤ substrate protein remaining % ≤ 80%)
- IKZF3 substrate protein remaining % [5, 7]: A (0% ≤ substrate protein remaining % ≤ 80%)
- IKZF 1 substrate protein remaining % [6, 7]: B (80%< substrate protein remaining %≤ 100%)

SMILES: O=C1CCC(N2C(=O)c3ccc(CN4CCN(c5cnccn5)CC4)cc3C2=O)C(=O)N1 (stereo not drawn) [GT-07060, 2-(2,6-dioxopiperidin-3-yl)-5-((4-(pyrazin-2-yl)piperazin-1-yl)methyl)isoindoline-1,3-dione]
- IKZF2 substrate protein remaining % [1, 7]: A (0% ≤ substrate protein remaining % ≤ 80%)
- CK1a substrate protein remaining % [2, 7]: A (0% ≤ substrate protein remaining % ≤ 80%)
- Weel substrate protein remaining % [3, 7]: A (0% ≤ substrate protein remaining % ≤ 80%)
- GSPT1 substrate protein remaining % [4, 7]: A (0% ≤ substrate protein remaining % ≤ 80%)
- IKZF3 substrate protein remaining % [5, 7]: A (0% ≤ substrate protein remaining % ≤ 80%)
- IKZF 1 substrate protein remaining % [6, 7]: A (0% ≤ substrate protein remaining % ≤ 80%)

SMILES: O=C1CCC(N2C(=O)c3ccc(CN4CCN(c5cccc(C(F)(F)F)n5)CC4)cc3C2=O)C(=O)N1 (stereo not drawn) [GT-06530, 2-(2,6-dioxopiperidin-3-yl)-5-((4-(6-(trifluoromethyl)pyridin-2-yl)piperazin-1-yl)methyl)isoindoline-1,3-dione]
- IKZF2 substrate protein remaining % [1, 7]: B (80%< substrate protein remaining %≤ 100%)
- CK1a substrate protein remaining % [2, 7]: B (80%< substrate protein remaining %≤ 100%)
- Weel substrate protein remaining % [3, 7]: B (80%< substrate protein remaining %≤ 100%)
- GSPT1 substrate protein remaining % [4, 7]: A (0% ≤ substrate protein remaining % ≤ 80%)
- IKZF3 substrate protein remaining % [5, 7]: B (80%< substrate protein remaining %≤ 100%)
- IKZF 1 substrate protein remaining % [6, 7]: B (80%< substrate protein remaining %≤ 100%)

SMILES: Cc1ccc(N2CCN(Cc3ccc4c(c3)C(=O)N(C3CCC(=O)NC3=O)C4=O)CC2)cc1 (stereo not drawn) [GT-06277, 2-(2,6-dioxopiperidin-3-yl)-5-((4-(p-tolyl)piperazin-1-yl)methyl)isoindoline-1,3-dione]
- IKZF2 substrate protein remaining % [1, 7]: B (80%< substrate protein remaining %≤ 100%)
- CK1a substrate protein remaining % [2, 7]: B (80%< substrate protein remaining %≤ 100%)
- Weel substrate protein remaining % [3, 7]: B (80%< substrate protein remaining %≤ 100%)
- GSPT1 substrate protein remaining % [4, 7]: A (0% ≤ substrate protein remaining % ≤ 80%)
- IKZF3 substrate protein remaining % [5, 7]: B (80%< substrate protein remaining %≤ 100%)
- IKZF 1 substrate protein remaining % [6, 7]: B (80%< substrate protein remaining %≤ 100%)

SMILES: O=C1CCC(N2C(=O)c3ccc(CN4CCCN(c5cccc(Cl)c5Cl)CC4)cc3C2=O)C(=O)N1 (stereo not drawn) [GT-06695, 5-((4-(2,3-dichlorophenyl)-1,4-diazepan-1-yl)methyl)-2-(2,6-dioxopiperidin-3-yl)isoindoline-1,3-dione]
- IKZF2 substrate protein remaining % [1, 7]: A (0% ≤ substrate protein remaining % ≤ 80%)
- CK1a substrate protein remaining % [2, 7]: B (80%< substrate protein remaining %≤ 100%)
- Weel substrate protein remaining % [3, 7]: B (80%< substrate protein remaining %≤ 100%)
- GSPT1 substrate protein remaining % [4, 7]: A (0% ≤ substrate protein remaining % ≤ 80%)
- IKZF3 substrate protein remaining % [5, 7]: B (80%< substrate protein remaining %≤ 100%)
- IKZF 1 substrate protein remaining % [6, 7]: B (80%< substrate protein remaining %≤ 100%)

SMILES: Cc1cc(N2CCN(Cc3ccc4c(c3)C(=O)N(C3CCC(=O)NC3=O)C4=O)CC2)cs1 (stereo not drawn) [GT-06218, 2-(2,6-dioxopiperidin-3-yl)-5-((4-(5-methylthiophen-3-yl)piperazin-1-yl)methyl)isoindoline-1,3-dione]
- IKZF2 substrate protein remaining % [1, 7]: B (80%< substrate protein remaining %≤ 100%)
- CK1a substrate protein remaining % [2, 7]: A (0% ≤ substrate protein remaining % ≤ 80%)
- Weel substrate protein remaining % [3, 7]: A (0% ≤ substrate protein remaining % ≤ 80%)
- GSPT1 substrate protein remaining % [4, 7]: A (0% ≤ substrate protein remaining % ≤ 80%)
- IKZF3 substrate protein remaining % [5, 7]: A (0% ≤ substrate protein remaining % ≤ 80%)
- IKZF 1 substrate protein remaining % [6, 7]: B (80%< substrate protein remaining %≤ 100%)

SMILES: Cc1sc2ncnc(N3CCCN(Cc4ccc5c(c4)C(=O)N(C4CCC(=O)NC4=O)C5=O)CC3)c2c1C (stereo not drawn) [GT-06308, 5-((4-(5,6-dimethylthieno[2,3-d]pyrimidin-4-yl)-1,4-diazepan-1-yl)methyl)-2-(2,6-dioxopiperidin-3-yl)isoindoline-1,3-dione]
- IKZF2 substrate protein remaining % [1, 7]: A (0% ≤ substrate protein remaining % ≤ 80%)
- CK1a substrate protein remaining % [2, 7]: B (80%< substrate protein remaining %≤ 100%)
- Weel substrate protein remaining % [3, 7]: B (80%< substrate protein remaining %≤ 100%)
- GSPT1 substrate protein remaining % [4, 7]: B (80%< substrate protein remaining %≤ 100%)
- IKZF3 substrate protein remaining % [5, 7]: B (80%< substrate protein remaining %≤ 100%)
- IKZF 1 substrate protein remaining % [6, 7]: A (0% ≤ substrate protein remaining % ≤ 80%)

SMILES: Cc1cccc(N2CCN(Cc3ccc4c(c3)C(=O)N(C3CCC(=O)NC3=O)C4=O)CC2)c1 (stereo not drawn) [GT-06276, 2-(2,6-dioxopiperidin-3-yl)-5-((4-(m-tolyl)piperazin-1-yl)methyl)isoindoline-1,3-dione]
- IKZF2 substrate protein remaining % [1, 7]: A (0% ≤ substrate protein remaining % ≤ 80%)
- CK1a substrate protein remaining % [2, 7]: B (80%< substrate protein remaining %≤ 100%)
- Weel substrate protein remaining % [3, 7]: B (80%< substrate protein remaining %≤ 100%)
- GSPT1 substrate protein remaining % [4, 7]: A (0% ≤ substrate protein remaining % ≤ 80%)
- IKZF3 substrate protein remaining % [5, 7]: B (80%< substrate protein remaining %≤ 100%)
- IKZF 1 substrate protein remaining % [6, 7]: A (0% ≤ substrate protein remaining % ≤ 80%)

SMILES: Cc1ccc(Cl)cc1N1CCN(Cc2ccc3c(c2)C(=O)N(C2CCC(=O)NC2=O)C3=O)CC1 (stereo not drawn) [GT-06367, 5-((4-(5-chloro-2-methylphenyl)piperazin-1-yl)methyl)-2-(2,6-dioxopiperidin-3-yl)isoindoline-1,3-dione]
- IKZF2 substrate protein remaining % [1, 7]: A (0% ≤ substrate protein remaining % ≤ 80%)
- CK1a substrate protein remaining % [2, 7]: B (80%< substrate protein remaining %≤ 100%)
- Weel substrate protein remaining % [3, 7]: A (0% ≤ substrate protein remaining % ≤ 80%)
- GSPT1 substrate protein remaining % [4, 7]: A (0% ≤ substrate protein remaining % ≤ 80%)
- IKZF3 substrate protein remaining % [5, 7]: A (0% ≤ substrate protein remaining % ≤ 80%)
- IKZF 1 substrate protein remaining % [6, 7]: B (80%< substrate protein remaining %≤ 100%)
